Key:
Settings in all cases: 50 mM Tris pH 8.0; lipid monolayer, interfacial binding (not a 1:1 site)
VpPLD-(His)6-WT = test system: VpPLD-(His)6-WT
(His)6-VpPLD-WT [1] = test system: (His)6-VpPLD-WT
(His)6-VpPLD-Δ451-487 = test system: (His)6-VpPLD-Δ451-487
(His)6-VpPLD-WT [2] = test system: (His)6-VpPLD-WT; remark: listed apart in the source
(His)6-VpPLD-Δ469-487 = test system: (His)6-VpPLD-Δ469-487
(His)6-VpPLD-Δ434-487 = test system: (His)6-VpPLD-Δ434-487
VpPLD-(His)6-Δ1-34 = test system: VpPLD-(His)6-Δ1-34
VpPLD-(His)6-Δ1-25 = test system: VpPLD-(His)6-Δ1-25

Structure (SMILES) | MIP (VpPLD-(His)6-WT) | synergy factor a ((His)6-VpPLD-WT [1]) | MIP ((His)6-VpPLD-Δ451-487) | MIP ((His)6-VpPLD-WT [2]) | MIP ((His)6-VpPLD-Δ469-487) | MIP ((His)6-VpPLD-Δ434-487) | MIP (VpPLD-(His)6-Δ1-34) | MIP (VpPLD-(His)6-Δ1-25)
CCCCCCCCCCCCCC(=O)OC[C@H](COP(=O)(O)OCC(O)CO)OC(=O)CCCCCCCCCCCCC (mixture of isomers) [DMPG, 1,2-Dimyristoyl-sn-glycero-3-phospho-rac-glyceol] | 26.8 ± 0.9 mN m^-1 | 0.29 ± 0.03 | – | – | – | – | – | –
CCCCCCCCCCCCCC(=O)OC[C@H](COP(=O)([O-])OCC[N+](C)(C)C)OC(=O)CCCCCCCCCCCCC [DMPC, 1,2-Dimyristoyl-sn-glycero-3-phosphocholine] | 37.4 ± 1.3 mN m^-1 | – | 34.9 ± 3.7 mN m^-1 | 29.6 ± 2.6 mN m^-1 | 29.8 ± 1.8 mN m^-1 | – | – | –
CCCCCCCCCCCCCC(=O)OC[C@H](COP(=O)(O)OCCN)OC(=O)CCCCCCCCCCCCC [DMPE, 1,2-Dimyristoyl-sn-glycero-3-phosphoethanolamine] | 29.8 ± 2.8 mN m^-1 | – | – | 32.8 ± 3.7 mN m^-1 | 26.2 ± 2.7 mN m^-1 | 45.1 ± 2.8 mN m^-1 | 47.8 ± 8.7 mN m^-1 | 39.4 ± 6.2 mN m^-1
CCCCCCCCCCCCCC(=O)OC[C@H](COP(=O)(O)OC[C@H](N)C(=O)O)OC(=O)CCCCCCCCCCCCC [DMPS, 1,2-Dimyristoyl-sn-glycero-3-phospho-L-serine] | 38.5 ± 2.7 mN m^-1 | – | 36.4 ± 2.1 mN m^-1 | 34.8 ± 0.6 mN m^-1 | – | 40.4 ± 4.6 mN m^-1 | 36.5 ± 2.7 mN m^-1 | 30.4 ± 3.2 mN m^-1

Source: PMC6121230 (International Journal of Molecular Sciences, 2018)
